Laboratory results taken from ChEMBL document CHEMBL1201862, “PubChem BioAssay data set” (2004).
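All cell lines were grown in 96-well plates and treated with compound for 48 hours. GI50 = concentration required for 50% inhibition of growth.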 Activity calls are given as the source filed them. Rule as the data show it: active = GI50 up to about 1.1 µM and inactive = higher.

Columns and labels:
Assay in all cases: NCI anticancer screen, dose series, 48 h
[1] = system: RPMI-8226
[2] = system: A498
[3] = system: SW-620
[4] = system: HCC 2998
[5] = system: HL-60
[6] = system: A549
[7] = system: OVCAR-8
[8] = system: LOX IMVI
[9] = system: UACC-257
[10] = system: SN12C
[11] = system: UACC-62
[12] = system: HCT-116
[13] = system: NCI-H460
[14] = system: UO-31
[15] = system: KM12
[16] = system: Malme-3M
[17] = system: SF-268

Measured: GI50

CCOC(=O)NC(=O)c1cn(CCCCCCCCCCC(=O)N2CCN(CCn3cc(C(=O)NC(=O)OCC)c(=O)[nH]c3=O)CC2)c(=O)[nH]c1=O
inactive: [1] > 100 µM | [2] > 100 µM | [3] > 100 µM | [4] > 100 µM | [5] > 100 µM | [6] > 100 µM | [7] > 100 µM | [8] > 100 µM | [9] > 100 µM | [10] > 100 µM | [11] > 100 µM | [12] > 100 µM | [13] > 100 µM

Cc1ccc(S(=O)(=O)OCCn2cnc3nc(NC(=O)c4ccccc4)[nH]c(=O)c32)cc1
inactive: [1] > 100 µM | [2] > 100 µM | [14] > 100 µM | [3] > 100 µM | [5] > 100 µM | [6] > 100 µM | [7] > 100 µM | [8] > 100 µM | [15] > 100 µM | [9] > 100 µM | [10] > 100 µM | [11] > 100 µM | [12] > 100 µM | [16] > 100 µM | [13] > 100 µM | [17] > 100 µM

O=C1c2ccccc2C2C1N2C(=O)C(F)(F)F (centres undefined)
inactive: [1] > 100 µM | [2] > 100 µM | [14] > 100 µM | [3] > 100 µM | [5] 24.7 µM | [6] > 100 µM | [7] > 100 µM | [8] 49 µM | [15] > 100 µM | [9] > 100 µM | [10] > 100 µM | [11] > 100 µM | [12] > 100 µM | [16] > 100 µM | [13] > 100 µM | [17] > 100 µM

CCOC(=O)C1=C(OC(OCC)C(CC)[Se]c2ccccc2)CCCC1 (centres undefined)
inactive: [1] 13 µM | [2] > 100 µM | [14] 35.3 µM | [4] 13.4 µM | [5] 15.9 µM | [6] 45.3 µM | [7] 19.1 µM | [8] 4.54 µM | [15] > 100 µM | [9] 35 µM | [10] 14.6 µM | [11] 19.8 µM | [12] 17.5 µM | [16] 16.9 µM | [13] 36.4 µM | [17] 19 µM

CC(=O)O/N=C/c1ncccc1OC(C)=O
inactive: [2] > 100 µM | [14] > 100 µM | [3] > 100 µM | [5] > 100 µM | [6] > 100 µM | [7] > 100 µM | [8] > 100 µM | [15] > 100 µM | [9] > 100 µM | [10] > 100 µM | [11] > 100 µM | [12] > 100 µM | [16] > 100 µM | [13] > 100 µM | [17] > 100 µM

COC(=O)CC1NC(=O)C1C(C)(OC)OC (centres undefined)
inactive: [1] > 100 µM | [2] > 100 µM | [14] > 100 µM | [3] > 100 µM | [4] > 100 µM | [5] > 100 µM | [6] > 100 µM | [7] > 100 µM | [8] > 100 µM | [9] > 100 µM | [10] > 100 µM | [11] > 100 µM | [12] > 100 µM | [16] > 100 µM | [13] > 100 µM | [17] > 100 µM

Cc1cc2c(=O)cc(-c3ccc(Cl)cc3Cl)oc2c(C(=O)O)c1C
inactive: [1] > 100 µM | [14] > 100 µM | [3] > 100 µM | [6] > 100 µM | [7] > 100 µM | [8] > 100 µM | [15] > 100 µM | [9] > 100 µM | [10] > 100 µM | [11] > 100 µM | [12] > 100 µM | [16] > 100 µM | [13] > 100 µM | [17] > 100 µM

C1=CC=C2NCCC/N=C3/C=CC=CC=C3NCCC/N=C\2C=C1
inactive: [1] > 100 µM | [2] > 100 µM | [14] > 100 µM | [3] > 100 µM | [4] > 100 µM | [5] > 100 µM | [6] > 100 µM | [7] > 100 µM | [8] > 100 µM | [15] > 100 µM | [10] > 100 µM | [11] > 100 µM | [12] > 100 µM | [13] > 100 µM | [17] > 100 µM

COC1OC2COC(c3ccccc3)OC2C(O)C1Br (centres undefined)
inactive: [1] > 100 µM | [2] > 100 µM | [3] > 100 µM | [4] > 100 µM | [5] > 100 µM | [6] > 100 µM | [7] > 100 µM | [8] > 100 µM | [15] > 100 µM | [9] > 100 µM | [10] > 100 µM | [11] > 100 µM | [12] > 100 µM | [16] > 100 µM | [13] > 100 µM | [17] > 100 µM

O=C(NC(=O)c1cn(CCN2CCN(C(=O)NCCCCCCNC(=O)N3CCN(CCn4cc(C(=O)NC(=O)OCc5ccccc5)c(=O)[nH]c4=O)CC3)CC2)c(=O)[nH]c1=O)OCc1ccccc1
inactive: [1] > 100 µM | [14] > 100 µM | [3] > 100 µM | [5] > 100 µM | [6] > 100 µM | [7] > 100 µM | [8] > 100 µM | [9] > 100 µM | [10] > 100 µM | [11] > 100 µM | [12] > 100 µM | [16] > 100 µM | [13] > 100 µM

COc1cc2nc(Sc3c([N+](=O)[O-])ncn3C)[nH]c2cc1OC
inactive: [1] 22.3 µM | [2] 78 µM | [14] 46 µM | [3] 26 µM | [4] 17.9 µM | [6] 34.8 µM | [7] 15.1 µM | [8] 41.6 µM | [15] 46.7 µM | [9] 28.6 µM | [10] 16.3 µM | [11] 24.3 µM | [12] 27.4 µM | [16] 56.2 µM | [13] 49.9 µM | [17] 19.2 µM

CC1=C(c2ccccc2)CON(c2ccccc2)C1
inactive: [1] 28.4 µM | [14] 29.7 µM | [3] 39.4 µM | [4] 67.5 µM | [5] 26.6 µM | [6] 54.5 µM | [7] 33.5 µM | [8] 30.8 µM | [15] 22.7 µM | [9] 40.8 µM | [10] 53.6 µM | [11] 38.5 µM | [12] 24.7 µM | [16] 56.4 µM | [13] 35 µM | [17] 39.9 µM

O=C(O)CCCNS(=O)(=O)c1ccccc1
inactive: [1] > 100 µM | [2] > 100 µM | [14] > 100 µM | [3] > 100 µM | [4] > 100 µM | [5] > 100 µM | [6] > 100 µM | [7] > 100 µM | [8] > 100 µM | [15] > 100 µM | [9] > 100 µM | [10] > 100 µM | [11] > 100 µM | [16] > 100 µM | [13] > 100 µM | [17] > 100 µM

COc1ccc2c3c([nH]c2c1[N+](=O)[O-])C(C)N(Cc1ccc([N+](=O)[O-])cc1)CC3 (centres undefined)
inactive: [1] 4.12 µM | [2] 14.8 µM | [14] 13.2 µM | [3] 15.1 µM | [4] 17.2 µM | [5] 3.22 µM | [6] > 100 µM | [7] 16.2 µM | [8] 4.74 µM | [15] 14.2 µM | [9] 12.9 µM | [10] 18.5 µM | [11] 15.8 µM | [13] 11.8 µM | [17] 2.48 µM

CC(=O)OC1COC(Nc2ccc(C(C)=O)cc2)C(OC(C)=O)C1OC(C)=O (centres undefined)
inactive: [1] > 100 µM | [2] > 100 µM | [14] > 100 µM | [3] > 100 µM | [4] > 100 µM | [6] > 100 µM | [7] > 100 µM | [8] > 100 µM | [15] > 100 µM | [9] > 100 µM | [10] > 100 µM | [11] > 100 µM | [16] > 100 µM | [13] > 100 µM | [17] > 100 µM

NCCCNC(=O)c1csc(NC(=O)c2csc(NC(=O)CCCN)n2)n1
inactive: [1] > 100 µM | [2] > 100 µM | [14] > 100 µM | [4] > 100 µM | [5] > 100 µM | [6] > 100 µM | [7] > 100 µM | [15] > 100 µM | [9] > 100 µM | [10] > 100 µM | [11] > 100 µM | [12] > 100 µM | [16] > 100 µM | [13] > 100 µM | [17] > 100 µM

CCOC(OC1=CCCC1)C(C)[Se]c1ccccc1 (centres undefined)
inactive: [1] 18.1 µM | [2] 18.2 µM | [14] 39.3 µM | [4] 32.4 µM | [5] 14.6 µM | [6] 34.8 µM | [7] 39.5 µM | [8] 14.7 µM | [15] 43.8 µM | [9] 36 µM | [10] 30.7 µM | [11] 23.9 µM | [12] 20.9 µM | [16] 32.8 µM | [13] 19.6 µM | [17] 17.6 µM

CC(=O)Nc1ccc(C(=O)N2N=C(C)/C(=C/c3cccc([N+](=O)[O-])c3)C2=O)cc1
inactive: [1] > 100 µM | [14] > 100 µM | [3] > 100 µM | [4] > 100 µM | [5] > 100 µM | [6] > 100 µM | [7] > 100 µM | [8] > 100 µM | [15] > 100 µM | [9] > 100 µM | [10] > 100 µM | [12] > 100 µM | [16] > 100 µM | [13] > 100 µM | [17] > 100 µM
